According to patent publication US6673625B2, “Saccharide sensing molecules having enhanced fluorescent properties” (The Regents of the University of California, priority 1999, dated 2004):

How the values were obtained:
[1] = Rehm-Weller estimate of free energy of photoinduced electron transfer (PET); type: physicochemical
From the text: The search for new fluorescent glucose transducers based on photoelectron transfer (PET) requires, among other things, an understanding of the electrochemistry of any potential donor-acceptor pair. The free energy of PET (ΔGel) can be calculated using the Rehm-Weller equation shown below:
ΔGel(kcal mol^−1)=23.06[E^0(D^+/D)−E^0(A/A^−)]−wp−wr−ΔG00 where E^0(D^+/D) is the oxidation potential of the donor, E^0(A/A^−) is the reduction potential of the acceptor, and ΔG00 is the free energy corresponding to the equilibrium energy E00 (see e.g. Kavarnos, G. J. In Fundamentals of photoinduced electron transfer, VCH Publishers: New York, N.Y., 1993; p Chapter 1 and Rehm and Weller, Ist. J. Chem. 1970, 8, 259). The quantities wp and wr are Coulombic terms for the products and reactants, and ate found to be small in polar solvents. To simplify predictions, we assume wp and wr to be zero, and estimate E00 as the energy corresponding to [λmax(ex)+λmax(em)]/2 for each fluorophore.
ΔGPET=23.06[E^0(Z^oxidation)−E^0(F^reduction)]−ΔE00],
The electrochemical potentials can be measured using the individual molecular groups before assembling the complete molecule.
Electrochemistry. The search for new fluorescent glucose transducers based on PET requires, among other things, an understanding of the electrochemistry of any potential donor-acceptor pair. The free energy of PET (ΔGel) can be calculated using the Rehm-Weller equation shown in eq 1, where E^0(D^+/D) is the oxidation potential of the […]
ΔGe(kcal mol^−1)=23.06[E^0(D^+/D)−E^0(A/A^−)]−wp−wr−ΔG00 (1) donor, E^0(A/A^−) is the reduction potential of the acceptor, and ΔG00 is the free energy corresponding to the equilibrium energy E00. The quantities wp and wr are Coulombic terms for the products and reactants, and are found to be small in polar solvents. In our case, wr=0 since the reactants are neutral. To simplify predictions, we assume wp to be zero and estimate E00 as the energy corresponding to [λmax(ex)+λmax(em)]/2 for each fluorophore. […]
it is possible to estimate the free energy of photoinduced electron transfer (PET) in these systems (see e.g. Kavamos, G. J. Fundamentals of Photoinduced Electron Transfer, VCH: New York, 1993; pp 37-40). E0(D^+/D) and E^0(A/A^−) correspond to the […] of the electron donor (i.e. amine) and electron acceptor (i.e. fluorophore), respectively. The quantity ΔG00, is the equilibrium energy, which we estimate as the energy corresponding to the equilibrium wavelength λ00. As an estimate of λ00, we use the average of the excitation and emission maxima for each fluorophore. Smaller solvent-dependent work terms for the Coulombic interaction between the reactants and products are left out for simplicity. Since the mechanism of fluorescence switching in these systems depends on PET, this gives us a rough estimate of which fluorophores should give the best response to glucose.

[2] = Cyclic voltammetry (glassy carbon, Ag/AgCl reference, 0.1 M NBu4ClO4 in acetonitrile); type: physicochemical
Procedure: Samples for FT IR spectroscopy were prepared as solutions in CHCl3, and only the C═O stretches are reported. Unless otherwise stated, all NMR spectra were recorded at 500 MHz for ^1H and 125 MHz for ^13C at 20-25° C. using CDCl3 as the solvent. Unless stated otherwise, mass spectra were obtained using electrospray ionization (50 V) with a 50/50 methanol/water solvent mixture with ^1% acetic acid added. Cyclic voltammetry was conducted using a glassy carbon working electrode, platinum counter electrode, and Ag/AgCl reference electrode and carried out in a 0.1 M solution of NBu4ClO4 in acetonitrile.
Summarized Syntheses. As the syntheses are described as a series of analogous compounds with general procedures are given below. Cyclic voltammetry was conducted using a glassy carbon working electrode, platinum counter electrode, and Ag/AgCl reference electrode and carried out in a 0.1 M solution of NBu4ClO4 in acetonitrile. Samples for fluorescence were prepared as 1.00 mM stock solutions in MeOH. A 30.0 μL aliquot of solution was then added to 3.000 mL of the appropriate solvent mixture (a combination of methanol and phosphate buffered saline—PBS). Relative quantum yields were determined by the relative output of equimolar solutions of two compounds using 3ay as a reference. Glucose additions were performed by the addition of a concentrated solution of glucose in PBS to a stirred solution of the fluorescent molecule in methanol/PBS.
General. All reactions were performed under an atmosphere of N2, followed by work-up in air. Protected boronate esters were stored under vacuum to prevent slow hydrolysis from atmospheric moisture. Unless stated otherwise, all chemicals were purchased from commercial suppliers. Anhydrous solvents from Aldrich were used for all reactions. Starting compounds known in the art such as N-n-butyl-4-chloronaphthalene-1,8-dicarboximide(1ax), 2,2-dimethylpropane-1,3-diyl[o-(bromomethyl) phenyl]boronate, were prepared by literature methods (see e.g. Daffy et al. Chem-Eur J 1998, 4, 1810-1815; de Silva et al., Chem Rev 1997, 97, 1515-1566). Samples for FT IR spectroscopy were prepared as solutions in CHCl3, and only the C═O stretches are reported here. All mass spectra were obtained using electrospray ionization (ESI/MS) with an ionization potential of 50V and a solvent system consisting of 1% acetic acid in 50/50 methanol/water. Cyclic voltammetry was conducted using a glassy carbon working electrode, platinum counter electrode, and Ag/AgCl reference electrode and carried out in a 0.1 M solution of NBu4ClO4 in acetonitrile. Samples for fluorescence measurements were prepared as 1.00 mM stock solutions in MeOH. A 30.0 μL aliquot of solution was then added to 3.000 mL of the appropriate solvent mixture (a combination of methanol and phosphate buffered saline—PBS) giving a final concentration of 10.0 μM for each complex. Changes in pH were carried out by the addition of small volumes of concentrated hydrochloric acid, acetic acid, or sodium hydroxide. Glucose additions were performed by the addition of a concentrated solution of glucose in PBS to a stirred solution of fluorophore in a cuvette. Relative quantum yield measurements were carried out by measuring the relative intensities of equimolar solutions (10.0 μM) of two fluorophores. Compound 3ay was used as the reference.

[3] = Glucose sensitivity testing of chloro-oxazine-one boronate (COB); conditions: glucose zero to 600 mg/dL; 66% MeOH/buffer pH 7.4; 450/560 nm
Procedure: To investigate the conjugated organic heterocyclic ring system compounds as fluorophores, an oxazine-one system was studied. An oxazine-one is described as a neutral (uncharged) precursor to a charged oxazine dye. The relevant values for the COB system for the Rehm-Weller equation are: ΔGPET=−12.1 kcal/mole, E^0(Z^ox)=0.88V, E^0(F^red)=−1.10V, and ΔE00=57.8 kcal/mole. The compound's response to glucose in several solvent systems was characterized. A stock solution of the compound was prepared by dissolving 5.7 mg in 5 mL of methanol. Samples were prepared by adding 30 μL of this stock solution to 3 mL of solvent.
Glucose sensitivity testing was performed on the oxazine-one compound. Samples were prepared as described above and titrated with 30 μL aliquots of concentrated glucose solution (300 mg/mL). […] Following an initial period in which the baseline fluorescence level was determined, four 30 μL aliquots of glucose were introduced into the sample resulting in a final glucose concentration of approximately 1200 mg/dL. In this solvent system, glucose transduction yields a 45% increase in the fluorescence intensity as the glucose concentration is increased from zero to 600 mg/dL.
COB's response was evaluated in several solvent systems. […]
Based on these spectra, excitation and emission wavelengths of 450 nm and 560 nm, respectively, were chosen for subsequent steady-state fluorescence tests. […]

6-chloro-5H-benzo[a]phenoxazin-5-one boronate [COB]
ΔE00, energy of the excited state fluorophore [1]: 57.8 kcal/mol
ΔGPET ([1]; simplified Rehm-Weller equation): -12.1 kcal/mol
E^0(F^red), reduction potential of the fluorophore [2]: −1.10 V
E^0(Z^ox), oxidation potential of the switch [2]: 0.88 V
increase in the fluorescence intensity [3]: 45%
